US7696184B2, “Amino-propanol derivatives as sphingosine-1-phosphate receptor modulator” (Novartis AG, priority 2003, dated 2010)

Key:
[1] = system: peripheral blood lymphocytes; experiment: In vivo: Blood Lymphocyte Depletion; settings: rats, p.o.
Protocol: B. In vivo: Blood Lymphocyte Depletion
A compound of formula I or the vehicle is administered orally by gavage to rats. Tail blood for hematological monitoring is obtained on day -1 to give the baseline individual values, and at 2, 6, 24, 48 and 72 hours after application. In this assay, the compounds of formula I deplete peripheral blood lymphocytes when administered at a dose of 0.03 to 3 mg/kg. For example, following results are obtained: depletion of peripheral blood lymphocytes by more than 50%

[2] = target: T1, human S1P receptor EDG-1 (S1P1) (Homo sapiens, UniProt P21453); experiment: S1P receptor profiling, GTP[γ-35S] binding SPA, S1P1; assay type: biochemical; settings: for EC50: GTP[γ-35S] binding, membranes of transfected CHO or RH7777 cells
T1 construct: expressed in transfected cells
Protocol: (§1) Sphingosine-1-phosphate (S1P) Receptor Profiling
(§2) Agonist activities of compounds are tested on the human SIP receptors EDG-1 (S1P1), EDG-3 (S1P3), EDG-5 (S1P2), EDG-6 (S1P4) and EDG-8 (S1P5). […] The assay technology used is SPA (scintillation proximity based assay). Briefly, DMSO dissolved compounds are serially diluted and added to SPA-bead (Amersham-Pharmacia) immobilised S1P receptor expressing membrane protein (10-20 μg/well) in the presence of 50 mM Hepes, 100 mM NaCl, 10 mM MgCl2, 10 μM GDP, 0.1% fat free BSA and 0.2 nM GTP [γ-^35S] (1200 Ci/mmol). After incubation in 96 well microtiterplates at RT for 120 min, unbound GTP [γ-^35S] is separated by a centrifugation step. Luminescence of SPA beads triggered by membrane bound GTP [γ-^35S] is quantified with a TOPcount plate reader (Packard). EC50s are calculated using standard curve fitting software.

[3] = target: T2, human S1P receptor EDG-6 (S1P4) (Homo sapiens, UniProt O95977); experiment: S1P receptor profiling, GTP[γ-35S] binding SPA, S1P4; assay type: biochemical; settings: for EC50: GTP[γ-35S] binding, membranes of transfected CHO or RH7777 cells; for S1P4 mode of action: column beside S1P4 EC50
T2 construct: expressed in transfected cells
T2 sequence (O95977 1-384): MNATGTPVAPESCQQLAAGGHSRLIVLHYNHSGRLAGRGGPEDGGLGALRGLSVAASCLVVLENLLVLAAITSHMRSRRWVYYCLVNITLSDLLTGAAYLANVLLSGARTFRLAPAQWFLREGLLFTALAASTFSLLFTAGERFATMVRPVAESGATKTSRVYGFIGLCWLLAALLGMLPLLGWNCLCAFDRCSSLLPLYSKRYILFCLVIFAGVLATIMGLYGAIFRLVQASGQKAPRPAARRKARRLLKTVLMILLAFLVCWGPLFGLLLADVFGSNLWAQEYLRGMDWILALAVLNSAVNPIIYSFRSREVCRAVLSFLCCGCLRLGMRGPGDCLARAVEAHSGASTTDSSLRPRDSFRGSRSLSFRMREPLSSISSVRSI
Protocol: as §1, §2

[4] = target: T3, human S1P receptor EDG-3 (S1P3) (Homo sapiens, UniProt Q99500); experiment: S1P receptor profiling, GTP[γ-35S] binding SPA, S1P3; assay type: biochemical; settings: membranes of transfected CHO or RH7777 cells
T3 construct: expressed in transfected cells
Protocol: as §1, §2

[5] = target: T4, human S1P receptor EDG-5 (S1P2) (Homo sapiens, UniProt O95136); experiment: S1P receptor profiling, GTP[γ-35S] binding SPA, S1P2; assay type: biochemical; settings: membranes of transfected CHO or RH7777 cells
T4 construct: expressed in transfected cells
Protocol: as §1, §2

[6] = target: T5, human S1P receptor EDG-8 (S1P5) (Homo sapiens, UniProt Q9H228); experiment: S1P receptor profiling, GTP[γ-35S] binding SPA, S1P5; assay type: biochemical; settings: for EC50: GTP[γ-35S] binding, membranes of transfected CHO or RH7777 cells; for S1P5 mode of action: column beside S1P5 EC50
T5 construct: expressed in transfected cells
Protocol: as §1, §2

T3 sequence (Q99500 whole entry): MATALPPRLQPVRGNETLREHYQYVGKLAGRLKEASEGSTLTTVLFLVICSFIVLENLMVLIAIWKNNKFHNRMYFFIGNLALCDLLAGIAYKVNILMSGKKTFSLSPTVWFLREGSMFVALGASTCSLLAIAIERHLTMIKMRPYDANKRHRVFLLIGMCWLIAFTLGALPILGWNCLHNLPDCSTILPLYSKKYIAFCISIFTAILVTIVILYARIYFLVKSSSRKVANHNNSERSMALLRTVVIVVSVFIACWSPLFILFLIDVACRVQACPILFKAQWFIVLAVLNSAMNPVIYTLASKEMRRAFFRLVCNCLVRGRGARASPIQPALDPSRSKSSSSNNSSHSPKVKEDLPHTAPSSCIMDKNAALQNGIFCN
T1 sequence (P21453 whole entry): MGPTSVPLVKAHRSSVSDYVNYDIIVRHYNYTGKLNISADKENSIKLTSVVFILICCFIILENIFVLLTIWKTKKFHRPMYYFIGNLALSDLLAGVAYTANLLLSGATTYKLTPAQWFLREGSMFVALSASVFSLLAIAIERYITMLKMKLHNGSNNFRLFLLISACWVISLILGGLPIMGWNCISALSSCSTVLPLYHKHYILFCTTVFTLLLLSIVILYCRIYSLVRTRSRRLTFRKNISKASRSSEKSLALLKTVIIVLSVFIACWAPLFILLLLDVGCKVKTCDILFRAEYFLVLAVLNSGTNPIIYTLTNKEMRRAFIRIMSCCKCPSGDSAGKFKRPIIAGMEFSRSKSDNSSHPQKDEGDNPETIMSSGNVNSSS
T5 sequence (Q9H228 whole entry): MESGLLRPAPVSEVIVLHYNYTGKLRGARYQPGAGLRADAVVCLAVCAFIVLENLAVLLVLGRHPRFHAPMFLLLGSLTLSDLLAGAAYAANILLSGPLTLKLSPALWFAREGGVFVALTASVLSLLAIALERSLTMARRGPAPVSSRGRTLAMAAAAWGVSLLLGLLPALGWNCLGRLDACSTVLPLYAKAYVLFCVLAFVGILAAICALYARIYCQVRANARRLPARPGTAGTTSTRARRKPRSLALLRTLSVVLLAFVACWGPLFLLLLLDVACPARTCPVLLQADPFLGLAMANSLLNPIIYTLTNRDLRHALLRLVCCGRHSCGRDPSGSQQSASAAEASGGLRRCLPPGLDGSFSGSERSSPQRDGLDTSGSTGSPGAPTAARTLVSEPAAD
T4 sequence (O95136 whole entry): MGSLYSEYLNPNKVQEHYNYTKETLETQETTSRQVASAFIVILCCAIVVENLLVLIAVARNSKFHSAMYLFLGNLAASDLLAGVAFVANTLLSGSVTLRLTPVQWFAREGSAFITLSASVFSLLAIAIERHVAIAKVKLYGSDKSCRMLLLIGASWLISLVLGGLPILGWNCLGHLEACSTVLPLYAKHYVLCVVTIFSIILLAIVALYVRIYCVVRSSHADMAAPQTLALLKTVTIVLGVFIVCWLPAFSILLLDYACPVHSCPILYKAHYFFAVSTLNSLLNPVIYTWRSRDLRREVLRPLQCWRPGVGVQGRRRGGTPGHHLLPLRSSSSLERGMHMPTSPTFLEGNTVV

| SMILES | dose giving depletion of peripheral blood lymphocytes by more than 50% ([1]; after 6 h) [mg/kg] | dose giving depletion of peripheral blood lymphocytes by more than 50% ([1]; after 48 h) [mg/kg] | S1P1 mode of action [2] | EC50 [2] [nM] | EC50 [3] [nM] | S1P4 mode of action [3] | EC50 [4] [nM] | EC50 [5] [nM] | EC50 [6] [nM] | S1P5 mode of action [6] |
| --- | --- | --- | --- | --- | --- | --- | --- | --- | --- | --- |
| CCCCCOc1c(Cl)cc(CC[C@@](C)(N)CO)cc1Cl [Example 1, (R)-2-Amino-4-(3,5-dichloro-4-pentyloxy-phenyl)-2-methyl-butan-1-ol Hydrotriflate] | 0.5 | > 1 |  |  |  |  |  |  |  |  |
| CCCCCOc1c(Cl)cc(CC[C@@](C)(N)COP(=O)(O)O)cc1Cl [Example 4, Phosphoric acid mono-[(R)-2-amino-4-(3,5-dichloro-4-pentyloxy-phenyl)-2-methyl-butyl]ester] |  |  | Agon. | 0.2 | 0.2 | Agon. | > 10000 | > 10000 | 0.2 | Agon. |
| COc1cc(CC[C@@](C)(N)CO)cc(Cl)c1OCCCC(F)(F)C(F)(F)F.Cl [Example 5, (R)-2-Amino-4-[3-chloro-5-methoxy-4-(4,4,5,5,5-pentafluoro-pentyloxy)-phenyl]-2-methyl-butan-1-ol Hydrochloride] | 0.2 | > 1 |  |  |  |  |  |  |  |  |
| COc1cc(CC[C@@](C)(N)COP(=O)(O)O)cc(Cl)c1OCCCC(F)(F)C(F)(F)F [Example 6, Phosphoric acid mono-{(R)-2-amino-4-[3-chloro-5-methoxy-4-(4,4,5,5,5-pentafluoro-pentyloxy)-phenyl]-2-methyl-butyl}ester] |  |  | Agon. | 1.3 | 0.8 | Agon. | > 10000 | > 10000 | 0.2 | Agon. |
| CCOc1ccc(CCOc2c(Cl)cc(CC[C@@](C)(N)CO)cc2OC)cc1 [Example 9, (R-2-Amino-4-{3-chloro-4-[2-(4-ethoxy-phenyl)-ethoxy]-5-methoxy-phenyl}-2-methyl-butan-1-ol Hydrotriflate] | 0.2 |  |  |  |  |  |  |  |  |  |
| CCOc1ccc(CCOc2c(Cl)cc(CC[C@@](C)(N)COP(=O)(O)O)cc2OC)cc1 [Example 10, Phosphoric acid mono-((R)-2-amino-4-{3-chloro-4-[2-(4-ethoxy-phenyl)-ethoxy]-5-methoxy-phenyl}-2-methyl-butyl)ester] |  |  |  | 0.3 | > 10000 |  | 111 | > 10000 | 2.5 |  |
